Results published in PMC6853232, “Discovery and evaluation of novel synthetic 5-alkyl-4-oxo-4,5-dihydro-[1,2,4]triazolo[4,3-a]quinoxaline-1-carbox-amide derivatives as anti-inflammatory agents” (Journal of Enzyme Inhibition and Medicinal Chemistry, 2019).

Tests used:
Type in all cases: cell-based, mouse
[1] = tested on: IL-6 production in LPS-stimulated RAW264.7 cells; test: Cytokine production assay (ELISA), IL-6
Procedure: (§1) RAW264.7 cells were seeded at 3 × 10^5 cells/well in a 48-well microplate and incubated overnight.The cells were pre-treated with the different concentrations of the test compunds (3, 7.5, 10 or 30 µM) for 30 min before the stimulation with LPS (1 µg/mL). According to the protocol of the manufacturer, supernatants were harvested at the 24th hour for the assay of TNF-α or IL-6 with ELISA kits (BD Biosciences, San Diego, CA, USA). Briefly, 100 µL of biotinylated antibody reagent and the culture supernatants were added to anti-mouse TNF-α or IL-6 precoated 96-well plates, and the plates were incubated for 2 h at RT. The plate was washed with a washing buffer and subsequently incubated with 100 µL of the streptavidin-HRP solution for 1 h at RT. The plate was washed, and incubated with 100 µL of TMB substrate solution for 30 min at RT in the dark. The reaction was stopped by adding 50 µL of stop solution, and then the absorbance was measured at 450 nm by a plate reader. A standard curve was produced for each assay plate using serially diluted recombinant IL-6.

[2] = tested on: phosphorylation of ERK in RAW 264.7 cells; test: Western blot, LPS-induced phosphorylation of ERK
Procedure: (§2) RAW 264.7 cells (5 × 10^5 cells/well) plated onto 6-well plates were incubated for 24 h and treated with 7.5, 15.0 or 30.0 µM of compound 6p for 30 min and then stimulated with […] of LPS for 24 h. The cells were collected and washed three times with ice-cold PBS. The cells were treated with a cell lysis buffer [50 mM Tris (pH 7.6), 150 mM NaCl, 5 mM EDTA (pH 8.0), 0.6% NP-40, 1 mM Na3VO4, 20 mM β-glycerophosphate, 1 mM phenylmethylsulfonyl fluoride, 2 mM p-nitrophenyl phosphate, and 1:25 Complete Mini Protease Inhibitor cocktail (Boehringer, Mannheim,Germany)] and kept on ice for 30 min. The cell lysates were centrifuged (12,000 g at 4 °C) for 5 min to obtain a cytosolic fraction. The protein concentration was determined by BCA protein assay kit (Beyotime, Haimen, China). Aliquots of the lysates were separated on 10% sodium dodecyl sulphate (SDS)-polyacrylamide gel electrophoresis (PAGE) and then electro blotted onto a polyvinylidene difluoride (PVDF) membrane. The blots were blocked with 5% (w/v) non-fat dry milk for 2 h at 37 °C, followed by incubation with specific primary antibody at 4 °C overnight. […] Blots were again washed with TTBS and the immune active proteins were detected using ECL plus (Thermo, USA). […] Results are expressed as the relative ratio of the specific band compared with the internal reference.

[3] = tested on: TNF-α production in LPS-stimulated RAW264.7 cells; test: Cytokine production assay (ELISA), TNF-α
Procedure: as §1

[4] = tested on: LPS-induced NO production in RAW264.7 macrophages; test: Inhibition of LPS-induced NO production (Griess)
Procedure: (§3) The RAW 264.7 mouse macrophage cell line was obtained from the China Cell Line Bank (Beijing, China). Cells were cultured in complete medium (DMEM supplemented with 10% heat-inactivated FBS, 3 mM glutamine and antibiotics (100 U/mL penicillin and 100 U/mL streptomycin)) at 37 °C in a humidified incubator containing 5% CO2 and 95% air. Cells were treated with various concentrations of synthesised compounds for 30 min followed by stimulation with LPS (1 µg/L).
Nitrite, a stable product of nitric oxide, was used to assess NO production. To study the effects of the isolated compounds on NO production, RAW264.7 cells were plated at 1 × 10^5 cells/well in a 96-well microplate and incubated overnight. The cells were pre-treated with various concentrations of the test compounds (3, 7.5, 10, 15, 30 or 100 µM) and further co-cultured with 1 µg/mL LPS for 24 h. Un-pre-treated and un-stimulated RAW 264.7 cells were conducted as the blank control group. At different time points, the supernatant (50 µL) was assayed with NO assay kit. The culture supernatant (50 µL) was mixed with an equal volume of the Griess reagent (1% sulphanilamide, 0.1% N-[1-naphthy] ethylenediamine dihydrochloride) and NO production were determined at 540 nm with an ELISAplate reader.

[5] = tested on: phosphorylation of p38 in RAW 264.7 cells; test: Western blot, LPS-induced phosphorylation of p38; details: 30 µM, p < .01
Procedure: as §2

[6] = MTT assay for cell viability; details: mouse, RAW264.7 macrophage cells; 30 μM, 24 h, RAW264.7 cells
Procedure: as §3, with “Cells were treated with various concentrations of synthesised compounds for 30 min followed by stimulation with LPS (1 µg/L).” left out
Cell viability studies induced by synthesised compounds were evaluated by 3-(4,5-dimethylthiazol-2-yl)-2,5-diphenyltetrazolium bromide (MTT) assay. RAW264.7 macrophages were seeded in 96-well plates at a density of 5 × 10^5 cells/mL in complete medium and incubated for 24 h (100 µL/well). Then the cells were treated with different concentrations of synthesised compounds for 24 h. 150 µL MTT (5 g/L in PBS) was added to each well and the cells were further incubated for 4 h. The supernatant was removed and the cells were lysed with 150 µL/well DMSO. The optical density was measured at 570 nm on a microplate reader (Thermo Scientific, MA, USA).

[7] = LPS 1 µg/mL, 24 h, different concentrations

## COc1cc(Cn2c(=O)c3nnc(C(N)=O)n3c3ccccc32)cc(OC)c1OC [6p, 5-(3,4,5-trimethoxybenzyl)-4-oxo-4,5-dihydro-[1,2, 4]triazolo[4,3-a]quinoxaline-1-carboxamide]
[1]; 3 µM, p < .001
  production of IL-6: significantly inhibited
[1]; [7]
  LPS-induced increase in IL-6 levels: inhibited in a concentration-dependent manner
[2]; 30 µM, p < .001
  phosphorylation of ERK: markedly diminished
[2]; 7.5, 15 and 30 µM
  LPS-induced phosphorylation of ERK, concentration dependence: concentration-dependent manner
[3]; 3 µM, p < .001
  production of TNF-α: significantly inhibited
[3]; [7]
  LPS-induced increase in TNF-α levels: inhibited in a concentration-dependent manner
[4]; 3 µM, p < .001 vs LPS alone
  inhibition of NO production: significantly inhibit
[4]; Mus musculus, RAW264.7, 10 µM, LPS 1 µg/mL, 24 h, read-out: NO inhibitory activity (% inhibition)
  inhibition at 10 µM: 38.8%
[5]
  phosphorylation of p38: markedly diminished
[6]
  viability at 24 h, 30 µM: 83.7 ± 1.53%
